Experimental data taken from patent publication US20070272777A1 (priority 2005, published 2007).
Where two headings read alike, the source gives them in different places.

Columns and labels:
[1] = prepared by recrystallization from ethanol or heating hydrate at 80° C; according to WO 03/26659; cited from earlier work
[2] = Source text: FIG. 6B illustrates this method. […] The standard may be prepared by mixing specific amounts of Type C and Form II and determining the X-ray diffraction pattern. This method is also illustrated in FIGS. 6A and B which are used to calculate the ratio between the heights of the peaks in the known mixtures. […] A round aluminum sample holder with zero background was used. […] Running in spin/oscillate mode. All peak positions are reported with an error of ±0.2 degrees two theta.
[3] = disclosed in WO 05/058835; cited from earlier work
[4] = target: serotonin 5-HT2A receptor (Homo sapiens, UniProt P28223); conditions: cited from earlier work
[5] = test system: cholinergic muscarinic receptors; conditions: cited from earlier work
α1-adrenergic receptor = conditions: cited from earlier work
[6] = target: T1, serotonin 5-HT1A receptor (Homo sapiens, UniProt P08908); conditions: cited from earlier work
T1 sequence (P08908 1-422): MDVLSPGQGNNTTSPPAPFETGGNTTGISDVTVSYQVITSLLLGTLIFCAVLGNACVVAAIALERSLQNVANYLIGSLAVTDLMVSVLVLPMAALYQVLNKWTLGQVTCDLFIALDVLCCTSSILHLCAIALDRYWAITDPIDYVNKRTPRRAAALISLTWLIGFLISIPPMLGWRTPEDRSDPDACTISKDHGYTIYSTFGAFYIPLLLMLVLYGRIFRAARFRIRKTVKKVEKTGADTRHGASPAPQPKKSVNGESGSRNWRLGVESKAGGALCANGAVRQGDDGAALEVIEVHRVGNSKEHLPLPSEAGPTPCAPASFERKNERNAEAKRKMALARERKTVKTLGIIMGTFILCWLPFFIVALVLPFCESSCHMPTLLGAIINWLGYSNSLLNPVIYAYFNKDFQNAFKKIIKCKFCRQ

histamine H1 receptor = histamine H1 receptor (Homo sapiens, UniProt P35367); conditions: cited from earlier work
[7] = target: T2, serotonin 5-HT2C receptor (Homo sapiens, UniProt P28335); conditions: cited from earlier work
T2 sequence (P28335 33-458): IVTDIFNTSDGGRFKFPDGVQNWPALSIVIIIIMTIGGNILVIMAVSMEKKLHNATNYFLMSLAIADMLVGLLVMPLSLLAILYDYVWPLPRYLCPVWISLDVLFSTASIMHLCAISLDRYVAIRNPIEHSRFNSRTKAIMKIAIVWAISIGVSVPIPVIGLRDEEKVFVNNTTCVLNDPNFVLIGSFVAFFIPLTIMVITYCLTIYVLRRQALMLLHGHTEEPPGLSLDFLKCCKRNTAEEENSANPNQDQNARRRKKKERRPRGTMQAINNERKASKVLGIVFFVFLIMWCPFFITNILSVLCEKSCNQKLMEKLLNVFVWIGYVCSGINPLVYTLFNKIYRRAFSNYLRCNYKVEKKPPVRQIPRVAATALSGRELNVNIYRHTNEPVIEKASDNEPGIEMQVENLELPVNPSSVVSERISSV

serotonin reuptake site = serotonin reuptake site (Homo sapiens, UniProt P31645); conditions: cited from earlier work
[8] = Example 5 (comparative): centrifugal ball mill, 90 minutes at 580 rpm

Chain of histamine H1 receptor (P35367 whole entry): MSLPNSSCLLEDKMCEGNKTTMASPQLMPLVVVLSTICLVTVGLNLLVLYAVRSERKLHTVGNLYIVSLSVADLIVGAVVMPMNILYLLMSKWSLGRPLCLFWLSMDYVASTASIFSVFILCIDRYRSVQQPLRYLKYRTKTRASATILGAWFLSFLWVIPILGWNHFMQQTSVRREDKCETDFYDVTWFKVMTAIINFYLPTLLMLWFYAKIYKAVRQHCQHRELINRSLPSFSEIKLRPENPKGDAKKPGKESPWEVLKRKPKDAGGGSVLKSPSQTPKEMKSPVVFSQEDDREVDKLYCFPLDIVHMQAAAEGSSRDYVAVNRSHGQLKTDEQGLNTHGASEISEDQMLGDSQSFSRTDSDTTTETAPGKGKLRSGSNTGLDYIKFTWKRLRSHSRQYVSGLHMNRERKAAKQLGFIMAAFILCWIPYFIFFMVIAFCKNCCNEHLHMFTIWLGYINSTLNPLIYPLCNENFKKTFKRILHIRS
Chain of serotonin 5-HT2A receptor (P28223 whole entry): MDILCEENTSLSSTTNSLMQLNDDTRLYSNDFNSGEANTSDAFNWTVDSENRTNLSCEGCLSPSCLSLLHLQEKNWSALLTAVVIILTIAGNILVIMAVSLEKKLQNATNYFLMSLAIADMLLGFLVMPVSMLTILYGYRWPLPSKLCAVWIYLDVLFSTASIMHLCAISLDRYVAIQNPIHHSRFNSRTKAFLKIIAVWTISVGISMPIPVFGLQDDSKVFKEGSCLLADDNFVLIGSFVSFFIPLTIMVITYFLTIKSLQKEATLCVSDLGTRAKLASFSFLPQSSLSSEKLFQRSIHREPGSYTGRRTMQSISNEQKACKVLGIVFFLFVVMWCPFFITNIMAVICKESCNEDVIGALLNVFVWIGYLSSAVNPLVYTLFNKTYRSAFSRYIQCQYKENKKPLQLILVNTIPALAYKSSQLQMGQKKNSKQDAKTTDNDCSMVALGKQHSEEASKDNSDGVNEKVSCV
Chain of serotonin reuptake site (P31645 whole entry): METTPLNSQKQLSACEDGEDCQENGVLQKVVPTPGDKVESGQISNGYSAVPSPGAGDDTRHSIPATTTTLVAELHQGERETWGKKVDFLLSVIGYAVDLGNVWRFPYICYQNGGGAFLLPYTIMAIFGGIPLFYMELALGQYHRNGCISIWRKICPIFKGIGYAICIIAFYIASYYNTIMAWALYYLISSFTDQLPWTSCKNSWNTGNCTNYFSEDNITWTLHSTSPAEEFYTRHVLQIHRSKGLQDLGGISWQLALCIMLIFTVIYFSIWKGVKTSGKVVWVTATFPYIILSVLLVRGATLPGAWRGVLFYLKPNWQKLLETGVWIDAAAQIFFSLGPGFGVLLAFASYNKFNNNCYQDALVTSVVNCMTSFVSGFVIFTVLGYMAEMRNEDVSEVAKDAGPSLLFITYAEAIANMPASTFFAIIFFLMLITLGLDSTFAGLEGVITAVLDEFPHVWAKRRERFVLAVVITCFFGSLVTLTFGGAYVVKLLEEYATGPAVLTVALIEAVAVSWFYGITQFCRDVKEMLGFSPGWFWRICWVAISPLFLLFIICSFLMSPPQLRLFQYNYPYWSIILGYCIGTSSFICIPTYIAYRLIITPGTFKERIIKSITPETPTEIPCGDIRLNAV

## O=C1CCc2ccc(OCCCCN3CCN(c4cccc(Cl)c4Cl)CC3)cc2N1 [anhydride aripiprazole]
[1]
  hygroscopicity: significantly hygroscopic

## O=C1CCc2ccc(OCCCCN3CCN(c4cccc(Cl)c4Cl)CC3)cc2N1 [Aripiprazole Form II, 7-{4-[4-(2,3-dichlorophenyl)-1-piperazinyl]-butoxy}-3,4-dihydro-2(1H)-quinolinone]
[2]; Example 1A: conical mill, 470 micron screen, 4710 rpm
  Type C content of milled sample by XRD: less than 5%
[2]; Example 1B: conical mill, 830 microns screen, 1315 rpm
  Type C content of milled sample by XRD: less than 5 % by weight
[2]; Example 2: ground with mortar and pestle about 1 min
  Type C content of milled sample by XRD: less than 5%
[2]; Example 3A: micronizer, Feeding Air 5.0 bars, Grinding Air 4.0 bars
  Type C content of milled sample by XRD: did not contain Type_C
[2]; Example 3B: micronizer, Feeding Air 3.0 bars, Grinding Air 2.0 bars
  Type C content of milled sample by XRD: did not contain Type_C
[2]; Example 3C: micronizer, 4 kg, Feeding Air 6.0 bars, Grinding Air 5.0 bars
  Type C content of milled sample by XRD: did not contain Type_C
[2]; Example 4A and 4B: frozen at −10° C. to −20° C. 24 hours, conical mill 470 microns/4710 or 830 microns/1315 rpm
  transformation to Type C by XRD: not transformed to Type C
[2]; [8]
  Type C content after milling by XRD: stark increase in the content of Type C
  crystallinity after milling by XRD: crystallinity of the sample decreased
[3]
  polymorphic transformation on heating: transformation to Type C

## O=C1CCc2ccc(OCCCCN3CCN(c4cccc(Cl)c4Cl)CC3)cc2N1 [Aripiprazole, 7-{4-[4-(2,3-dichlorophenyl)-1-piperazinyl]-butoxy}-3,4-dihydro-2(1H)-quinolinone]
[4]
  affinity for serotonin 5-HT2A receptor: high affinity
[5]
  affinity for cholinergic muscarinic receptors: no appreciable affinity
α1-adrenergic receptor
  affinity for α1-adrenergic receptor: moderate affinity
[6]
  affinity for serotonin 5-HT1A receptor: high affinity
Histamine H1 receptor
  affinity for histamine H1 receptor: moderate affinity
[7]
  affinity for serotonin 5-HT2C receptor: moderate affinity
Serotonin reuptake site
  affinity for the serotonin reuptake site: moderate affinity
